Assay results: patent publication US7935848B2, “Butone derivatives useful as cooling agents” (Givaudan S.A., priority 2007, dated 2011)

Assays:
Type in all cases: in vivo, human
[1] = Cooling intensity: panelists taste aqueous solutions, compared with menthol at 2 ppm; conditions: tasted by small group of panelists
[2] = Application in toothpaste: cooling perception after brushing; conditions: for Cooling sensation felt by the panelist in all areas of the mouth: opaque toothgel with 0.50 g peppermint oil and 0.30 g saccharin, teeth brushed, mouth rinsed; for Cooling sensation felt by the panelist in all areas of the mouth / Duration of cooling perception: test compound 0.05 g per 100 g; for Cooling perception rating versus control: toothgel with 0.05 g compound plus 0.50 g peppermint oil versus peppermint oil control; for Duration of cooling perception: toothgel, 0.50 g peppermint oil
Protocol: The chemicals are mixed in the toothgel, a piece of toothgel is put on a toothbrush and a panelist's teeth are brushed. The mouth is rinsed with water and the water is spat out. […] The cooling perception lasts for 40 minutes.
The chemicals are mixed in the toothgel, a piece of toothgel is put on a toothbrush and a panelist's teeth are brushed. The mouth is rinsed with water and the water is spat out.

[3] = Application in chewing gum: cooling perception after chewing; conditions: for Cooling perception rated higher than the control: chewing gum with 0.05 g compound plus 0.50 g peppermint oil versus peppermint oil control; for Cooling sensation felt by the panelist in all areas of the mouth: chewing gum with 0.50 g peppermint oil; for Cooling sensation felt by the panelist in all areas of the mouth / Duration of cooling perception: test compound 0.05 g, 2 g piece chewed 20 min; for Duration of cooling perception: chewing gum, 0.50 g peppermint oil
Protocol: The gum base and half of the sorbitol were mixed, maltitol syrup was added and the mixed with the gum mass. The rest of powder (rest of sorbitol, mannitol, potassium acesulfame, aspartame) were added and mixed for about 1 minute, when glycerine was added and the gum mass was mix for about 5 minutes, to form the blank chewing gum mass. Peppermint oil was worked into the mass and a piece of the resulting gum (2 g) is chewed by the panelist for 20 min and spat out. […] The cooling perception lasts for 50 minutes.
The chemical and peppermint oil was worked into the blank chewing gum mass from Example 12 a) and a piece of the resulting gum (2 g) is chewed by the panelist for 20 minutes and spat out.
The chemical and peppermint oil was worked into the blank chewing gum mass from Example 12a) and a piece of the resulting gum (2 g) is chewed by the panelist for 20 minutes and spat out.

| SMILES | Concentration with cooling intensity similar to or slightly higher than a solution of menthol at 2 ppm [1] [ppm] | Cooling sensation felt by the panelist in all areas of the mouth [2] | Cooling perception rating versus control [2] | Duration of cooling perception [2] [min] | Cooling perception rated higher than the control [3] [%] | Cooling sensation felt by the panelist in all areas of the mouth [3] | Duration of cooling perception [3] |
| --- | --- | --- | --- | --- | --- | --- | --- |
| CC(C)[C@@H]1CC[C@@H](C)C[C@H]1C(=O)CCCc1ccccn1 [Example 3, 1-((1R,2S,5R)-2-isopropyl-5-methylcyclohexyl)-4-(pyridin-2-yl)butan-1-one] | 0.01 |  |  |  |  |  |  |
| CCCC(=O)[C@@H]1C[C@H](C)CC[C@H]1C(C)C [Example 1, 1-((1R,2S,5R)-2-isopropyl-5-methylcyclohexyl)butan-1-one] | 2.0 | intense cooling sensation | higher then the control | 72 | 49 | cooling sensation | over 60 minutes |
| CC(C)[C@@H]1CC[C@@H](C)C[C@H]1O [l-Menthol, reference compound] | 2.0 |  |  |  |  |  |  |
| CC(C)C(C)(C(=O)CCCc1ccccc1)C(C)C [Example 4, 5-isopropyl-5,6-dimethyl-1-phenylheptan-4-one] | 3.0 |  |  |  |  |  |  |
| CC(C)[C@@H]1CC[C@@H](C)C[C@H]1C(=O)CCCc1ccccc1 [Example 2, 1-((1R,2S,5R)-2-isopropyl-5-methylcyclohexyl)-4-phenylbutan-1-one] | 2.0 | intense cooling sensation | higher then the control | 70 | 49 | cooling sensation | over 60 minutes |
| CCNC(=O)C1CC(C)CCC1C(C)C (stereo not drawn) [WS-3, N-ethyl p-menthanecarboxamide, reference compound] | 1.5 |  |  |  |  |  |  |
